Measurements taken from US10251395B2, “Substituted furano-/thienocycloalkylamino-2-pyrimidine derivatives and use thereof for controlling undesired plant growth” (Bayer CropScience Aktiengesellschaft, priority 2015, dated 2019).

Tests used:
Type in all cases: in vivo
[1] = system: Amaranthus retroflexus; experiment: Post-emergence herbicidal effect; conditions: assessed visually after about 3 weeks vs untreated controls
Excerpt: (§1) • ABUTH: Abutilon theophrasti ALOMY: Alopecurus myosuroides • AMARE: Amaranthus retroflexus AVEFA: Avena fatua • CYPES: Cyperus esculentus ECHCG: Echinochloa crus-galli • LOLMU: Lolium multiflorum MATIN: Matricaria inodora • PHBPU: Ipomoea purpurea POLCO: Polygonum convolvulus • SETVI: Setaria viridis STEME: Stellaria media • VERPE: Veronica persica VIOTR: Viola tricolor Seeds of monocotyledonous and dicotyledonous weed and crop plants are laid out in sandy loam in wood-fiber pots, covered with soil and cultivated in a greenhouse under good growth conditions. 2 to 3 weeks after sowing, the test plants are treated at the one-leaf stage. The compounds of the invention, formulated in the form of wettable powders (WP) or as emulsion concentrates (EC), are then sprayed onto the green parts of the plants as aqueous suspension or emulsion at a water application rate equating to 600 to 800 L/ha with addition of 0.2% wetting agent. After the test plants have been left to stand in the greenhouse under optimal growth conditions for about 3 weeks, the action of the preparations is assessed visually in comparison to untreated controls (herbicidal action in percent (%): 100% activity=the plants have died, 0% activity=like control plants).

[2] = system: Viola tricolor; experiment: Post-emergence herbicidal effect; conditions: assessed visually after about 3 weeks vs untreated controls
Excerpt: as §1

[3] = system: Echinochloa crus-galli; experiment: Post-emergence herbicidal effect; conditions: 320 g/ha, assessed visually after about 3 weeks vs untreated controls
Excerpt: as §1

[4] = system: Stellaria media; experiment: Post-emergence herbicidal effect; conditions: assessed visually after about 3 weeks vs untreated controls
Excerpt: as §1

[5] = system: Amaranthus retroflexus; experiment: Pre-emergence herbicidal effect; conditions: scored visually after 3 weeks
Excerpt: (§2) Seeds of monocotyledonous and dicotyledonous weed plants and crop plants are laid out in wood-fiber pots in sandy loam and covered with soil. The compounds of the invention, formulated in the form of wettable powders (WP) or as emulsion concentrates (EC), are then applied to the surface of the covering soil as aqueous suspension or emulsion at a water application rate equating to 600 to 800 L/ha with addition of 0.2% wetting agent.
(§3) After the treatment, the pots are placed in a greenhouse and kept under good growth conditions for the trial plants. The damage to the test plants is scored visually after a test period of 3 weeks by comparison with untreated controls (herbicidal activity in percent (%): 100% activity=the plants have died, 0% activity=like control plants).
(§4) • ABUTH: Abutilon theophrasti ALOMY: Alopecurus myosuroides • AMARE: Amaranthus retroflexus AVEFA: Avena fatua • CYPES: Cyperus esculentus ECHCG: Echinochloa crus-galli • LOLMU: Lolium multiflorum MATIN: Matricaria inodora • PHBPU: Ipomoea purpurea POLCO: Polygonum convolvulus • SETVI: Setaria viridis STEME: Stellaria media • VERPE: Veronica persica VIOTR: Viola tricolor

[6] = system: Viola tricolor; experiment: Pre-emergence herbicidal effect; conditions: scored visually after 3 weeks
Excerpt: as §2, §3, §4

[7] = system: Lolium multiflorum; experiment: Pre-emergence herbicidal effect; conditions: Dosage 320 g/ha, scored visually after 3 weeks
Excerpt: as §2, §3, §4

[8] = system: Matricaria inodora; experiment: Pre-emergence herbicidal effect; conditions: scored visually after 3 weeks
Excerpt: as §2, §3, §4

[9] = system: Veronica persica; experiment: Pre-emergence herbicidal effect; conditions: scored visually after 3 weeks
Excerpt: as §2, §3, §4

[10] = system: Setaria viridis; experiment: Pre-emergence herbicidal effect; conditions: scored visually after 3 weeks
Excerpt: as §2, §3, §4

[11] = system: Echinochloa crus-galli; experiment: Pre-emergence herbicidal effect; conditions: scored visually after 3 weeks
Excerpt: as §2, §3, §4

[12] = system: Polygonum convolvulus; experiment: Pre-emergence herbicidal effect; conditions: scored visually after 3 weeks
Excerpt: as §2, §3, §4

[13] = system: Stellaria media; experiment: Pre-emergence herbicidal effect; conditions: scored visually after 3 weeks
Excerpt: as §2, §3, §4

[14] = system: Veronica persica; experiment: Post-emergence herbicidal effect; conditions: assessed visually after about 3 weeks vs untreated controls
Excerpt: as §1

[15] = system: Abutilon theophrasti; experiment: Post-emergence herbicidal effect; conditions: assessed visually after about 3 weeks vs untreated controls
Excerpt: as §1

[16] = system: Abutilon theophrasti; experiment: Pre-emergence herbicidal effect; conditions: scored visually after 3 weeks
Excerpt: as §2, §3, §4

[17] = system: Matricaria inodora; experiment: Post-emergence herbicidal effect; conditions: assessed visually after about 3 weeks vs untreated controls
Excerpt: as §1

[18] = system: Setaria viridis; experiment: Post-emergence herbicidal effect; conditions: assessed visually after about 3 weeks vs untreated controls
Excerpt: as §1

[19] = system: Ipomoea purpurea; experiment: Post-emergence herbicidal effect; conditions: 320 g/ha, assessed visually after about 3 weeks vs untreated controls
Excerpt: as §1

[20] = system: Alopecurus myosuroides; experiment: Pre-emergence herbicidal effect; conditions: Dosage 320 g/ha, scored visually after 3 weeks
Excerpt: as §2, §3, §4

Structure (SMILES) | post-emergence efficacy AMARE ([1]; 80 g/ha) | post-emergence efficacy AMARE ([1]; 320 g/ha) | post-emergence efficacy VIOTR ([2]; 320 g/ha) | post-emergence efficacy STEME ([4]; 320 g/ha) | AMARE pre-emergence efficacy (herbicidal activity) ([5]; Dosage 320 g/ha) | VIOTR pre-emergence efficacy (herbicidal activity) ([6]; Dosage 80 g/ha) | VIOTR pre-emergence efficacy (herbicidal activity) ([6]; Dosage 320 g/ha) | MATIN pre-emergence efficacy (herbicidal activity) ([8]; Dosage 80 g/ha) | MATIN pre-emergence efficacy (herbicidal activity) ([8]; Dosage 320 g/ha) | VERPE pre-emergence efficacy (herbicidal activity) ([9]; Dosage 80 g/ha) | VERPE pre-emergence efficacy (herbicidal activity) ([9]; Dosage 320 g/ha) | SETVI pre-emergence efficacy (herbicidal activity) ([10]; Dosage 80 g/ha) | SETVI pre-emergence efficacy (herbicidal activity) ([10]; Dosage 320 g/ha) | ECHCG pre-emergence efficacy (herbicidal activity) ([11]; Dosage 320 g/ha) | POLCO pre-emergence efficacy (herbicidal activity) ([12]; Dosage 320 g/ha) | STEME pre-emergence efficacy (herbicidal activity) ([13]; Dosage 80 g/ha) | STEME pre-emergence efficacy (herbicidal activity) ([13]; Dosage 320 g/ha) | post-emergence efficacy VERPE ([14]; 320 g/ha) | post-emergence efficacy ABUTH ([15]; 320 g/ha) | post-emergence efficacy VIOTR ([2]; 80 g/ha) | other results
Nc1nc(NC2CCCc3sccc32)ncc1C(F)(F)F (racemic) [compound 70] | 40% | 100% | 100% | 100% | 100% | 100% | 100% | 100% | 100% | 90% | 100% | 100% | 100% | 100% | 100% | 100% | 100% |  |  |  | post-emergence efficacy ECHCG [3]: 80%; post-emergence efficacy STEME ([4]; 80 g/ha): 100%; AMARE pre-emergence efficacy (herbicidal activity) ([5]; Dosage 80 g/ha): 100%; LOLMU pre-emergence efficacy (herbicidal activity) [7]: 100%
Cc1cc2c(s1)CCCC2Nc1nc(N)c(S(C)(=O)=O)c(Cl)n1 (racemic) [compound 16] |  | 90% | 90% | 90% | 100% | 100% | 100% | 100% | 100% | 100% | 100% | 20% | 100% | 100% | 40% | 100% | 100% | 80% | 90% |  | post-emergence efficacy ECHCG [3]: 100%; AMARE pre-emergence efficacy (herbicidal activity) ([5]; Dosage 80 g/ha): 90%; ECHCG pre-emergence efficacy (herbicidal activity) ([11]; Dosage 80 g/ha): 100%; POLCO pre-emergence efficacy (herbicidal activity) ([12]; Dosage 80 g/ha): 20%; ABUTH pre-emergence efficacy (herbicidal activity) ([16]; Dosage 80 g/ha): 40%; ABUTH pre-emergence efficacy (herbicidal activity) ([16]; Dosage 320 g/ha): 40%
Cc1cc2c(s1)CCCC2Nc1ncc(C(N)=O)c(N)n1 (racemic) [compound 267] | 80% | 80% | 90% | 100% | 100% | 90% | 100% |  |  | 100% | 100% | 80% | 80% | 90% |  | 100% | 100% | 80% | 80% | 80% | post-emergence efficacy MATIN ([17]; 80 g/ha): 80%; post-emergence efficacy MATIN ([17]; 320 g/ha): 80%; post-emergence efficacy VERPE ([14]; 80 g/ha): 80%; post-emergence efficacy SETVI ([18]; 320 g/ha): 60%; post-emergence efficacy PHBPU [19]: 80%; post-emergence efficacy STEME ([4]; 80 g/ha): 80%; post-emergence efficacy ABUTH ([15]; 80 g/ha): 80%; AMARE pre-emergence efficacy (herbicidal activity) ([5]; Dosage 80 g/ha): 100%; ALOMY pre-emergence efficacy (herbicidal activity) [20]: 80%
Cc1cc2c(s1)CCCC2Nc1ncc(-c2ccccc2)c(N)n1 (racemic) [compound 296] | 60% | 90% | 80% |  |  | 60% | 100% | 90% | 100% | 100% | 100% | 70% | 100% |  |  |  | 90% | 90% | 70% | 70% | post-emergence efficacy MATIN ([17]; 320 g/ha): 60%; post-emergence efficacy SETVI ([18]; 80 g/ha): 40%; post-emergence efficacy SETVI ([18]; 320 g/ha): 70%
Cc1cc2c(s1)CCCC2Nc1nc(N)c([S+](C)[O-])c(Cl)n1 (racemic) [compound 39] |  |  | 80% |  | 100% | 100% | 100% | 100% | 100% |  | 100% | 100% | 100% | 100% | 90% | 100% | 100% |  |  | 80% | post-emergence efficacy PHBPU [19]: 80%; ECHCG pre-emergence efficacy (herbicidal activity) ([11]; Dosage 80 g/ha): 80%; POLCO pre-emergence efficacy (herbicidal activity) ([12]; Dosage 80 g/ha): 80%; ABUTH pre-emergence efficacy (herbicidal activity) ([16]; Dosage 320 g/ha): 80%
Cc1cc2c(s1)CCCC2Nc1ncc(-c2cncc(C(F)(F)F)c2)c(N)n1 (racemic) [compound 290] | 80% | 80% | 90% |  | 100% | 100% | 100% | 90% | 100% | 100% | 100% | 60% | 100% | 100% | 80% | 100% | 100% | 100% | 60% | 60% | post-emergence efficacy MATIN ([17]; 80 g/ha): 80%; post-emergence efficacy MATIN ([17]; 320 g/ha): 90%; post-emergence efficacy SETVI ([18]; 320 g/ha): 60%; post-emergence efficacy ABUTH ([15]; 80 g/ha): 60%; LOLMU pre-emergence efficacy (herbicidal activity) [7]: 100%; ALOMY pre-emergence efficacy (herbicidal activity) [20]: 80%; POLCO pre-emergence efficacy (herbicidal activity) ([12]; Dosage 80 g/ha): 50%
